# Source: PMC3493109 (Biochemistry, 2012)
# Tests used:
# Type in all cases: binding
# [1] = biological target: T1, glyoxylate carboligase (GCL) (Escherichia coli, UniProt P0AEP7, I393A); test: CD titration at […] nm, Hill fit
# [2] = biological target: T1, glyoxylate carboligase (GCL); test: CD titration at […] nm
# [3] = biological target: glyoxylate carboligase (GCL) (Escherichia coli, UniProt P0AEP7, I393A/V51D); test: CD titration at […] nm
# glyoxylate carboligase (GCL) (Escherichia coli, UniProt P0AEP7, I393A/V51D), sequence (P0AEP7 2-593 V51D/I393A limits assumed): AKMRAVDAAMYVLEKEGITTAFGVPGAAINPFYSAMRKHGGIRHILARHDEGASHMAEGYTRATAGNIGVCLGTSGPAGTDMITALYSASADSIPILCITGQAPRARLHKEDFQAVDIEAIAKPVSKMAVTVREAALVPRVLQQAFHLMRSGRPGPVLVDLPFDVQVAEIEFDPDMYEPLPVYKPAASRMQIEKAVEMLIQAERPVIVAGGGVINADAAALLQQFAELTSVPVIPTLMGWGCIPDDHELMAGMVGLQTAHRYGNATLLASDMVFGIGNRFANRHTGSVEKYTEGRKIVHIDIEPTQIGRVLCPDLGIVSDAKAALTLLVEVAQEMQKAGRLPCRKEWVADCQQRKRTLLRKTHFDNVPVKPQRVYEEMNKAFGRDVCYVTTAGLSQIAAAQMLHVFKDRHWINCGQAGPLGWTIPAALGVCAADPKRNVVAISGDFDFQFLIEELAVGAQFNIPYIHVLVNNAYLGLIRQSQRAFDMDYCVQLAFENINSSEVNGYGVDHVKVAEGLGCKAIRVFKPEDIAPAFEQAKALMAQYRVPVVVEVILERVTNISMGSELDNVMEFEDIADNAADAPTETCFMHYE
# T1 sequence (P0AEP7 2-593 I393A limits assumed): as the sequence (P0AEP7 2-593 V51D/I393A limits assumed) above, with D50V counted along it
SMILES,Kd [1],Kd [2],Kd [3]
CC(=O)C(=O)O [pyruvate],8.2 µM,–,–
COP(=O)(O)C(C)=O [MAP],–,1400 ± 90 µM,110 ± 100 µM
